Reference: patent US4515941A, “23-Demycinosyldesmycosin derivatives” (Toyo Jozo Kabushiki Kaisha, priority 1982, dated 1985)
≈ marks a conversion by molar mass, not a printed value.

Columns and labels:
Format in all cases: cell-based
Serratia marcescens = assay: MIC, Serratia marcescens; details: read-out: MIC
[1] = test system: Streptococcus faecalis 1501; assay: MIC, Streptococcus faecalis 1501; details: Enterococcus faecalis; Streptococcus faecalis 1501; read-out: MIC
[2] = test system: Escherichia coli NIHJ-JC2; assay: MIC, Escherichia coli NIHJ-JC2; details: NIHJJC2
[3] = test system: Staphylococcus aureus MS353 A0; assay: MIC, Staphylococcus aureus MS353 A0 (macrolide resistant); details: MS353A0, macrolide resistant bacteria A group
Description: (§1) *macrolide resistant bacteria A group (clinical isolates of erythromycin,
(§2) oleandomycin and 16membered macrolide antibiotic resistant strains.)

[4] = test system: Bacillus subtilis ATC 6633; assay: MIC, Bacillus subtilis ATC 6633; details: ATC6633; Bacillus subtilis ATC 6633; read-out: MIC
[5] = test system: Klebsiella pneumoniae ATCC 10031; assay: MIC, Klebsiella pneumoniae ATCC 10031; details: ATCC10031; Klebsiella pneumoniae ATCC 10031; read-out: MIC
[6] = test system: Streptococcus agalactiae 1020; assay: MIC, Streptococcus agalactiae 1020; details: Streptococcus agalactiae 1020; read-out: MIC
Escherichia coli B = assay: MIC, Escherichia coli B
Salmonella typhosa H901 = assay: MIC, Salmonella typhosa H901; details: Salmonella enterica, TYPHOSA
[7] = test system: Staphylococcus aureus MS353; assay: MIC, Staphylococcus aureus MS353; details: Staphylococcus aureus MS353; read-out: MIC
[8] = test system: Staphylococcus epidermis sp-al-1; assay: MIC, Staphylococcus epidermis sp-al-1; details: SPAL1; Staphylococcus epidermis sp-al-1; read-out: MIC
[9] = test system: Shigella flexineri type 3a; assay: MIC, Shigella flexineri type 3a; details: TYPE3A
[10] = test system: Staphylococcus aureus MS353 C36; assay: MIC, Staphylococcus aureus MS353 C36; details: MS353C36
[11] = test system: Staphylococcus aureus 0127; assay: MIC, Staphylococcus aureus 0127 (macrolide resistant); details: Staphylococcus aureus 0127; macrolide resistant bacteria A group; read-out: MIC
Description: as §1, §2

Sarcina lutea ATCC 9341 = assay: MIC, Sarcina lutea ATCC 9341; details: Micrococcus luteus, ATCC9341
[12] = test system: Staphylococcus aureus ATCC 6538P; assay: MIC, Staphylococcus aureus ATCC 6538P; details: ATCC6538P, read-out: MIC
[13] = test system: Micrococcus flavus ATCC 10240; assay: MIC, Micrococcus flavus ATCC 10240; details: ATCC10240; Micrococcus flavus ATCC 10240; read-out: MIC
[14] = test system: Corynebacterium diptheriae P.Y.8; assay: MIC, Corynebacterium diptheriae P.Y.8; details: Corynebacterium diptheriae P.Y.8; read-out: MIC
[15] = test system: Staphylococcus aureus 0119; assay: MIC, Staphylococcus aureus 0119 (macrolide resistant); details: macrolide resistant bacteria A group
Description: as §1, §2

[16] = test system: Streptococcus pyogenes N.Y.5; assay: MIC, Streptococcus pyogenes N.Y.5; details: read-out: MIC
[17] = test system: Streptococcus pyogenes 1022; assay: MIC, Streptococcus pyogenes 1022 (macrolide resistant); details: Streptococcus pyogenes 1022; macrolide resistant bacteria A group; read-out: MIC
Description: as §1, §2

Shigella sonnei E33 = assay: MIC, Shigella sonnei E33
[18] = test system: Salmonella enteritidis Gaertner; assay: MIC, Salmonella enteritidis Gaertner; details: Salmonella enterica; Salmonella enteritidis Gaertner; read-out: MIC
[19] = test system: Pseudomonas aeruginosa IAM 1095; assay: MIC, Pseudomonas aeruginosa IAM 1095; details: IAM1095; Pseudomonas aeruginosa IAM 1095; read-out: MIC
Proteus vulgaris OX19 = assay: MIC, Proteus vulgaris OX19; details: Proteus vulgaris OX19; read-out: MIC

CCC1OC(=O)CC(O)C(C)C(OC2OC(C)C(O)C(N(C)C)C2O)C(CC=O)CC(C)C(=O)C=CC(C)=CC1COc1ccccc1 (stereo not drawn)
MIC (Serratia marcescens): 25 µg/mL (≈ 37.1 µM) | MIC [1]: ≤ 0.05 µg/mL | MIC [2]: 50 µg/mL (≈ 74.2 µM) | MIC [3]: 50 µg/mL (≈ 74.2 µM) | MIC [4]: ≤ 0.05 µg/mL | MIC [5]: 1.6 µg/mL (≈ 2.37 µM) | MIC [6]: ≤ 0.05 µg/mL | MIC (Escherichia coli B): 25 µg/mL (≈ 37.1 µM) | MIC (Salmonella typhosa H901): 100 µg/mL (≈ 148 µM) | MIC [7]: ≤ 0.05 µg/mL | MIC [8]: ≤ 0.05 µg/mL | MIC [9]: 6.3 µg/mL (≈ 9.35 µM) | MIC [10]: ≤ 0.05 µg/mL | MIC [11]: 100 µg/mL (≈ 148 µM) | MIC (Sarcina lutea ATCC 9341): ≤ 0.05 µg/mL | MIC [12]: ≤ 0.05 µg/mL | MIC [13]: ≤ 0.05 µg/mL | MIC [14]: ≤ 0.05 µg/mL | MIC [15]: 100 µg/mL (≈ 148 µM) | MIC [16]: ≤ 0.05 µg/mL | MIC [17]: 50 µg/mL (≈ 74.2 µM) | MIC (Shigella sonnei E33): 50 µg/mL (≈ 74.2 µM) | MIC [18]: 100 µg/mL (≈ 148 µM) | MIC [19]: 50 µg/mL (≈ 74.2 µM) | MIC (Proteus vulgaris OX19): 12.5 µg/mL (≈ 18.6 µM)

CCC1OC(=O)CC(O)C(C)C(OC2OC(C)C(O)C(N(C)C)C2O)C(CC=O)CC(C)C(=O)C=CC(C)=CC1COc1ccc(Cl)cc1 (stereo not drawn)
MIC (Serratia marcescens): 50 µg/mL (≈ 70.6 µM) | MIC [1]: 0.1 µg/mL (≈ 0.141 µM) | MIC [2]: 50 µg/mL (≈ 70.6 µM) | MIC [3]: 25 µg/mL (≈ 35.3 µM) | MIC [4]: 0.1 µg/mL (≈ 0.141 µM) | MIC [5]: 3.1 µg/mL (≈ 4.38 µM) | MIC [6]: ≤ 0.05 µg/mL | MIC (Escherichia coli B): 50 µg/mL (≈ 70.6 µM) | MIC (Salmonella typhosa H901): > 100 µg/mL | MIC [7]: 0.1 µg/mL (≈ 0.141 µM) | MIC [8]: ≤ 0.05 µg/mL | MIC [9]: 6.3 µg/mL (≈ 8.89 µM) | MIC [10]: ≤ 0.05 µg/mL | MIC [11]: 25 µg/mL (≈ 35.3 µM) | MIC (Sarcina lutea ATCC 9341): ≤ 0.05 µg/mL | MIC [12]: 0.1 µg/mL (≈ 0.141 µM) | MIC [13]: ≤ 0.05 µg/mL | MIC [14]: ≤ 0.05 µg/mL | MIC [15]: 50 µg/mL (≈ 70.6 µM) | MIC [16]: ≤ 0.05 µg/mL | MIC [17]: 12.5 µg/mL (≈ 17.6 µM) | MIC (Shigella sonnei E33): 50 µg/mL (≈ 70.6 µM) | MIC [18]: > 100 µg/mL | MIC [19]: > 100 µg/mL | MIC (Proteus vulgaris OX19): 12.5 µg/mL (≈ 17.6 µM)

CCC1OC(=O)CC(O)C(C)C(OC2OC(C)C(O)C(N(C)C)C2O)C(CC=O)CC(C)C(=O)C=CC(C)=CC1COc1ccc(OC)cc1 (stereo not drawn)
MIC (Serratia marcescens): > 100 µg/mL | MIC [1]: 0.2 µg/mL (≈ 0.284 µM) | MIC [2]: > 100 µg/mL | MIC [3]: 100 µg/mL (≈ 142 µM) | MIC [4]: 0.2 µg/mL (≈ 0.284 µM) | MIC [5]: 3.1 µg/mL (≈ 4.4 µM) | MIC [6]: ≤ 0.05 µg/mL | MIC (Escherichia coli B): 100 µg/mL (≈ 142 µM) | MIC (Salmonella typhosa H901): > 100 µg/mL | MIC [7]: 0.2 µg/mL (≈ 0.284 µM) | MIC [8]: ≤ 0.05 µg/mL | MIC [9]: 50 µg/mL (≈ 71 µM) | MIC [10]: 0.1 µg/mL (≈ 0.142 µM) | MIC [11]: > 100 µg/mL | MIC (Sarcina lutea ATCC 9341): ≤ 0.05 µg/mL | MIC [12]: 0.2 µg/mL (≈ 0.284 µM) | MIC [13]: ≤ 0.05 µg/mL | MIC [14]: ≤ 0.05 µg/mL | MIC [15]: > 100 µg/mL | MIC [16]: ≤ 0.05 µg/mL | MIC [17]: 100 µg/mL (≈ 142 µM) | MIC (Shigella sonnei E33): > 100 µg/mL | MIC [18]: > 100 µg/mL | MIC [19]: > 100 µg/mL | MIC (Proteus vulgaris OX19): 50 µg/mL (≈ 71 µM)
